Assay results taken from patent US20080261986A1, “PHARMACEUTICAL FORMULATIONS FOR IONTOPHORETIC DELIVERY OF AN ANTI-FUNGAL DRUG” (priority 2007, published 2008).
Structures can show the parent of a compound that is named as a salt.

Columns and labels:
[1] = tested on: T. rubrum; conditions: quoted in the T. rubrum agar study, organism not given; cited from earlier work
[2] = Approximate visual solubility in receiver fluids; type: physicochemical; conditions: aqueous with cosolvent or surfactant or cyclodextrin, Approximate visual solubility
Description: The visual solubility of each receiver fluid shown in Table 3 below was initially tested for ketoconazole (BUFA B.V.) and ciclopirox (PCAS Finland Oy). Additional solubility testing was then conducted for terbinafine hydrochloride (QueMaCo Ltd.), amorolfine hydrochloride (Inter-Chemical Ltd.) and itraconazole EP (Shamrock, UK) and the results are shown in Table 3.
The solubility of terbinafine hydrochloride, fluconazole, itraconazole and amorolfine hydrochloride was determined in PBS and 5% Tween 80 and the results are summarized in Table 4.

[3] = Permeation through and loading in human nail, Franz diffusion cell; type: in vitro ADME
Description: Permeation experiments were conducted using human nails to further validate iontophoretic delivery. In these experiments intact full thickness whole cadaver finger nail plates (˜0.5-0.7 mm thickness) were trimmed to appropriate disks and used. Prehydrated (in saline for 60 min) nail disks were sandwiched between the donor and receptor compartments of Franz diffusion cell (FDC) using a nail adaptor to conform to the curvature of the nail. Terbinafine hydrochloride (10 mg/mL) in water and Tween80 was used in the donor compartment, and acidified water used in the receptor. Current density of 0.5 mA/cm^2 was applied for 1 hr after which the receptor levels were measured for permeation of terbinafine hydrochloride through the nail using similar methods as described in Example 3B. Additionally, nail disks were analyzed (after 1 hr of iontophoresis or passive delivery) for drug in the nail using similar extraction methods as described as follows. […]
Permeation experiments were conducted using human nails as described in Example 4 but the effect of current duration was investigated. Current density of 0.5 mA/cm^2 was applied for either 15, 30, 45, or 60 minutes and the receptor levels analyzed for amount of terbinafine hydrochloride that permeated through the nail (μg/cm^2) immediately afterwards and compared to passively delivered nails.

[4] = Saturated solubility of terbinafine HCl in various solvents; type: physicochemical; conditions: thermodynamic from solid, n = 3
Description: In order to establish a suitable receiver fluid for use in permeation studies, the saturated solubility of terbinafine HCl at room temperature was determined in various solvents such as, water, phosphate buffered saline (PBS), PBS with 5% Tween-80 (PBS-T), citrate buffer and sodium phosphate buffer. The drug was added to each of the solvents until visual saturation was obtained and the mixtures were left at controlled temperature (19° C.) for 24 hours. The saturated drug solution was filtered and solubility of the drug was determined by UV spectrophotometer.

[5] = tested on: T. rubrum; assay: Antifungal activity of terbinafine loaded nails, agar diffusion assay; type: cell-based
Description: The nail plates loaded with the formulation containing 4% terbinafine HCl, 21% ethanol (95%), 5% Tween-80, 40% glycerin, 0.3% HEC, 0.2% benzoic acid, 0.01% BHT, and 0.01% disodium EDTA (Formulation TPI-DF-507), by passive diffusion (15 or 60 min) or iontophoresis (Coulombic doses of 0.75, 3, 6, and 12 mA min corresponding to 0.25 mA/cm^2 for 15 min, 0.25 mA/cm^2 for 60 min, 0.5 mA/cm^2 for 60 min, and 1 mA/cm^2 for 60 min, respectively), were tested for antifungal activity. The inoculum, T. rubrum, (ATCC10218) was prepared in sterile saline from 7-10 days old cultures on PDA slants at 30° C. Terbinafine HCl loaded nail pieces (2˜3 mm squares) were placed on the Sabouraud Dextrose Agar plates (Oxoid, Napean, Ontario, Canada) inoculated with T. rubrum. The diameter (mm) of the zones of inhibition were measured using a dial caliper after 4 days of incubation at 30° C. and were compared with the standards. The zone of inhibition for the standards (known drug concentrations: 0.1, 0.2, 0.4, 0.5, 0.6, 0.8, 1.0. 2.0 and 3.0 μg of terbinafine HCl) were determined similarly by loading the drug on 6 mm paper blank disks (Becton Dickinson, Sparks, Md.). Subsequently, the terbinafine HCl standard curve generated was used to calculate the drug dosage out of the nail. […] Based on the passaging study, duration of release of active terbinafine HCl was determined.

[6] = type: in vitro ADME; conditions: 4 %, pH 3
Description: Nails soaked in normal saline for one hour were mounted on a nail adapter and sandwiched between the two chambers of the FDC. […] Anodal iontophoresis was carried out at 0.5 mA/cm^2 for 1 hr using a custom made constant DC power supply. For comparison, passive delivery of the same formulation was performed for 1 hr. For drug release studies, nails loaded with drug were washed to remove the surface drug and were mounted on FDCs. The receiver compartment was filled with pH 3 water. The donor chamber was empty but was covered with parafilm. The receiver compartment medium was sampled daily and the amount of drug released from the drug loaded nails was measured until the cumulative release attained a plateau. Drug delivered into the nail via iontophoresis released terbinafine HCl in a sustained release fashion over approximately 3 weeks at levels far greater than passively loaded nails which reached a plateau only after a few days (FIG. 11). The amount of drug released from iontophoretically loaded nails represented approximately 47% of the initial drug loaded. Undelivered drug was confined to the upper layers of the nail and was hypothesized to be either entrapped or keratin bound. […] Actual release may be slower in vivo since the nail is not in contact with a fluid reservoir with enhanced drug solubility and infinite sink conditions.

Question: For CN(C/C=C/C#CC(C)(C)C)Cc1cccc2ccccc12 [terbinafine HCl, (E)-N-(6,6-dimethyl-2-hepten-4-ynyl)-N-methyl-1-naphthylmethamine hydrochloride], which MIC [1] is on record?
Answer: 4 ng/mL

Question: And the solubility [2]?
Answer: > 5000 µg/mL

Question: What about the “permeation through the nail and loading in the nail, iontophoresis versus passive” value ([3]; 10 mg/mL in water and Tween80, 0.5 mA/cm^2 for 1 hr) of the same compound?
Answer: increases permeation through the nail and loading in the nail compared to passive delivery

Question: And the “iontophoretic permeation through the nail versus passive” value ([3]; 0.5 mA/cm^2 for 15, 30, 45, or 60 minutes)?
Answer: greater than passively delivered drug for all current durations tested

Question: And the solubility at 24 h ([4]; aqueous buffer, Citrate buffer, pH 5, 19° C.)?
Answer: 1810 µg/mL

Question: What about the solubility at 24 h ([4]; aqueous buffer, PBS, pH 7.4, 19° C.) of the same compound?
Answer: 1320 µg/mL

Question: What about the solubility at 24 h ([4]; aqueous with cosolvent or surfactant or cyclodextrin, PBS-T (PBS with 5% Tween-80), pH 6.8, 19° C.) of the same compound?
Answer: 6020 µg/mL

Question: What about the solubility at 24 h ([4]; Distilled water, pH 5.8, 19° C.) of the same compound?
Answer: 6370 µg/mL

Question: What about the “zones of inhibition, iontophoresis loaded nails versus passive delivery controls” value ([5]; Formulation TPI-DF-507, 4 days at 30° C.) of the same compound?
Answer: Significantly larger zones of inhibition

Question: And the “Duration of terbinafine HCl release from nail samples” value ([5]; serial passaging to freshly inoculated plates, 0.5 mA/cm^2 for 60 min)?
Answer: at least 36 days

Question: And the “amount of drug released as share of the initial drug loaded” value [6]?
Answer: approximately 47%

Question: And the “duration of sustained release from iontophoretically loaded nails” value [6]?
Answer: approximately 3 weeks
